Experimental data taken from patent US20060116390A1, “Hepatitis c virus inhibitors” (priority 2003, published 2006).
Where two headings read alike, the source gives them in different places.

Test system: HCV proteins in Rep5.1 cells (replicon cell line)
Assay: Inhibitory activity of HCV: cell-based ELISA in replicon cell line Rep5.1 (decrease of HCV proteins)
Set-up: species or system hepatitis C virus
Details: Hepatitis C virus, 72 h, Rep5.1 cells, 72 hours with drug
Procedure, shortened: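 Rep5.1 replicon cells (5000/well, DMEM-10 with 500 μg/ml G418) were given serially diluted drug 4 h after seeding. After 72 h, cells were fixed in methanol/acetone and HCV proteins detected by cell-based ELISA using replicon-specific patient plasma antibodies. IC50 is the concentration giving 50% protein decrease versus the no-drug control.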

[1] = concentration at which 50% of HCV proteins was decreased, Table 2, read-out: IC50
[2] = decrease of HCV proteins measured by HCV antibody, Table 1, read-out: Level (IC50 values classified)

| SMILES | IC50 [1] | IC50 [2] |
| --- | --- | --- |
| CC1=C(C(=O)OCc2cccc(C)c2C)CNC(=S)N1 [Compound 156, 6-methyl-2-thioxo-1,2,3,4-tetrahydro-pyrimidine-5-carboxylic acid 2,3-dimethyl-benzyl ester] | 500 nM | < 1000 nM |
| CC1=C(C(=O)OCc2ccc(OCc3ccccc3)cc2)CNC(=S)N1 [Compound 49, 6-methyl-2-thioxo-1,2,3,4-tetrahydro-pyrimidine-5-carboxylic acid 4-benzyloxy-benzyl ester] | < 500 nM | < 1000 nM |
| CC1=C(C(=O)OCCc2cccc(Cl)c2)C(COC(=O)OCCS(C)(=O)=O)NC(=S)N1 (stereo not shown) [84″, 4-(2-methanesulfonyl-ethoxycarbonyloxymethyl)-6-methyl-2-thioxo-1,2,3,4-tetrahydro-pyrimidine-5-carboxylic acid 2-(3-chloro-phenyl)-ethyl ester] | 900 nM | < 1000 nM |
| CC(C)=CCCC(C)=CCOC(=O)C1=C(C)NC(=S)NC1 [Compound 56, 6-methyl-2-thioxo-1,2,3,4-tetrahydro-pyrimidine-5-carboxylic acid 3,7-dimethyl-octa-2,6-dienyl ester] | < 500 nM | < 1000 nM |
| C=C(C)[C@@H]1CC=C(COC(=O)C2=C(C)NC(=S)NC2)CC1 [Compound 96, 6-methyl-2-thioxo-1,2,3,4-tetrahydro-pyrimidine-5-carboxylic acid (s)-(−)-4-isopropenyl-cyclohex-1-enylmethyl ester] | < 400 nM | < 1000 nM |
| COCC1NC(=S)NC(C)=C1C(=O)OCc1ccccc1 (stereo not shown) [Compound 109, 4-methoxymethyl-6-methyl-2-thioxo-1,2,3,4-tetrahydro-pyrimidine-5-carboxylic acid benzyl ester] | 100000 nM | > 20000 nM |
| CC1=C(C(=O)OCCc2ccc(F)cc2)CNC(=S)N1 [Compound 259, 6-methyl-2-thioxo-1,2,3,4-tetrahydro-pyrimidine-5-carboxylic acid 2-(4-fluoro-phenyl)-ethyl ester] | < 400 nM | < 1000 nM |
| CC1=C(C(=O)OCCc2ccc(F)c(C)c2)C(CO)NC(=S)N1 (stereo not shown) [66″, 4-hydroxymethyl-6-methyl-2-thioxo-1,2,3,4-tetrahydro-pyrimidine-5-carboxylic acid 2-(4-fluoro-3-methyl-phenyl)-ethyl ester] | 700 nM | < 1000 nM |
| CC1=C(C(=O)OCCc2ccc(N3CC=CC3)c([N+](=O)[O-])c2)C(CO)NC(=S)N1 (stereo not shown) [101″, 4-Hydroxymethyl-6-methyl-2-thioxo-1,2,3,4-tetrahydro-pyrimidine-5-carboxylic acid 2-[4-(2,5-dihydro-pyrrol-1-yl)-3-nitro-phenyl]-ethyl ester] | 1200 nM | 1000 to 10000 nM |
| CCOc1ccccc1CCOC(=O)C1=C(C)NC(=S)NC1CO (stereo not shown) [11″, 4-hydroxymethyl-6-methyl-2-thioxo-1,2,3,4-tetrahydro-pyrimidine-5-carboxylic acid 2-(2-ethoxy-phenyl)-ethyl ester] | 6000 nM | 1000 to 10000 nM |
| CC1=C(C(=O)OCCc2cccs2)CNC(=S)N1 [Compound 206, 6-methyl-2-thioxo-1,2,3,4-tetrahydro-pyrimidine-5-carboxylic acid 2-thiophen-2-yl-ethyl ester] | 600 nM | < 1000 nM |
| CC1=C(C(=O)OCC2CC2)CNC(=S)N1 [Compound 46, 6-methyl-2-thioxo-1,2,3,4-tetrahydro-pyrimidine-5-carboxylic acid cyclopropylmethyl ester] | 30000 nM | 10000 to 20000 nM |
| O=C(OCCc1ccsc1)C1=CNC(=S)NC1CF (stereo not shown) [Compound 271, 4-fluoromethyl-2-thioxo-1,2,3,4-tetrahydro-pyrimidine-5-carboxylic acid 2-thiophen-3-yl-ethyl ester] | 9000 nM | 1000 to 10000 nM |
| CC1=C(C(=O)OCCc2ccsc2Br)C(CO)NC(=S)N1 (stereo not shown) [10″, 4-hydroxymethyl-6-methyl-2-thioxo-1,2,3,4-tetrahydro-pyrimidine-5-carboxylic acid 2-(2-bromo-thiophen-3-yl)-ethyl ester] | 7000 nM | 1000 to 10000 nM |
